Consider two molecules from patent EP0982397A1, “Inhibition of contact system activation” (Stichting Sanquin Bloedvoorziening, priority 1998, dated 2000).

Peptide text beside a SMILES is read from it.

The subject of assay [1] is contact system. Put plainly: Inhibition by synthetic peptides of contact system activation in EDTA-plasma induced by kaolin. The following applies: Activator kaolin. Format: biochemical, human. As to the method:
• Figure 1: Effects of mAb KOK5 on activation of purified FXII. • A: Activation by kallikrein: Twenty-five µl of prewarmed FXII (125 nM), 25 µl of serial dilutions of mAb KOK5, 25 µl of prewarmed kallikrein (25 nM) and 25 µl of buffer yielding final concentrations of 50 mM Tris-HCl, 150 mM NaCl, 0.1% (wt/vol) Tween-20, pH 7.8, were incubated for 30 min at 37°C. Thereafter, 50 µl of assay mixture containing the chromogenic substrate S-2302 were added and the increase in absorbance at 405 nm at 37°C was recorded. Results are expressed as percentage of the total amount of FXII present in the mixture (as determined by limited digestion with 10 nM trypsin), and represent the mean ± SE of two experiments. […] Thereafter, 50 µl of assay mixture containing S-2302 were added and the increase in absorbance at 405 nm at 37°C was recorded. […] The reaction was stopped by adding 120 µl of stop buffer (PBS, 0.1 mg/ml SBTI, Polybrene 0.05% wt/vol) and the amount of FXIIa-C1-inhibitor (+---+), kallikrein-C1-inhibitor (o- -o) and factor XIa-C1-inhibitor (●- -●) complexes generated was measured. […] In addition 50 µl of purified FXII (500 nM) were first incubated for 2 min with kaolin and then with serial dilutions of mAb KOK5 for 15 min (+---+); whereafter the residual FXII clotting activity was measured. Results are expressed as percentage of inhibition compared to the clotting activity measured in the absence of mAbs and are the mean ± SE of two experiments. • Figure 4. […] After 10 min at room temperature tubes were centrifuged for 2 min at 10,000 g and the pellets were counted for radioactivity. Binding was expressed as the percentage of the total counts that were found in the pellet in the absence of mAbs. […] Bound FXII was detected by subsequent incubation with ^125I-anti-FXII antibodies. Results are expressed as percentage of the ^125I-anti-FXII added and represent the means of two experiments. • Figure 6. […]

Assay [2] relates to contact system. Put plainly: Inhibition by synthetic peptides of contact system activation in EDTA-plasma induced by DS500. In kind it is biochemical, human. The following applies: Activator DS500. As to the method:
• Figure 1: Effects of mAb KOK5 on activation of purified FXII. • A: Activation by kallikrein: Twenty-five µl of prewarmed FXII (125 nM), 25 µl of serial dilutions of mAb KOK5, 25 µl of prewarmed kallikrein (25 nM) and 25 µl of buffer yielding final concentrations of 50 mM Tris-HCl, 150 mM NaCl, 0.1% (wt/vol) Tween-20, pH 7.8, were incubated for 30 min at 37°C. Thereafter, 50 µl of assay mixture containing the chromogenic substrate S-2302 were added and the increase in absorbance at 405 nm at 37°C was recorded. Results are expressed as percentage of the total amount of FXII present in the mixture (as determined by limited digestion with 10 nM trypsin), and represent the mean ± SE of two experiments. […] Thereafter, 50 µl of assay mixture containing S-2302 were added and the increase in absorbance at 405 nm at 37°C was recorded. […] The reaction was stopped by adding 120 µl of stop buffer (PBS, 0.1 mg/ml SBTI, Polybrene 0.05% wt/vol) and the amount of FXIIa-C1-inhibitor (+---+), kallikrein-C1-inhibitor (o- -o) and factor XIa-C1-inhibitor (●- -●) complexes generated was measured. Results, expressed as percentage of the maximum amount of complexes generated in pooled plasma by DS500 (50 µg/ml), represent the mean values ± S.D. from three different experiments. • Figure 3. […] In addition 50 µl of purified FXII (500 nM) were first incubated for 2 min with kaolin and then with serial dilutions of mAb KOK5 for 15 min (+---+); whereafter the residual FXII clotting activity was measured. Results are expressed as percentage of inhibition compared to the clotting activity measured in the absence of mAbs and are the mean ± SE of two experiments. • Figure 4. […] After 10 min at room temperature tubes were centrifuged for 2 min at 10,000 g and the pellets were counted for radioactivity. Binding was expressed as the percentage of the total counts that were found in the pellet in the absence of mAbs. […] Bound FXII was detected by subsequent incubation with ^125I-anti-FXII antibodies. Results are expressed as percentage of the ^125I-anti-FXII added and represent the means of two experiments. • Figure 6. […]

For another assay, the target named is FXII. Put plainly: Binding of 125I-FXII to kaolin. Set-up: species or system human. As to the method:
• Figure 1: Effects of mAb KOK5 on activation of purified FXII. • A: Activation by kallikrein: Twenty-five µl of prewarmed FXII (125 nM), 25 µl of serial dilutions of mAb KOK5, 25 µl of prewarmed kallikrein (25 nM) and 25 µl of buffer yielding final concentrations of 50 mM Tris-HCl, 150 mM NaCl, 0.1% (wt/vol) Tween-20, pH 7.8, were incubated for 30 min at 37°C. Thereafter, 50 µl of assay mixture containing the chromogenic substrate S-2302 were added and the increase in absorbance at 405 nm at 37°C was recorded. Results are expressed as percentage of the total amount of FXII present in the mixture (as determined by limited digestion with 10 nM trypsin), and represent the mean ± SE of two experiments. […] Thereafter, 50 µl of assay mixture containing S-2302 were added and the increase in absorbance at 405 nm at 37°C was recorded. […] The reaction was stopped by adding 120 µl of stop buffer (PBS, 0.1 mg/ml SBTI, Polybrene 0.05% wt/vol) and the amount of FXIIa-C1-inhibitor (+---+), kallikrein-C1-inhibitor (o- -o) and factor XIa-C1-inhibitor (●- -●) complexes generated was measured. Results, expressed as percentage of the maximum amount of complexes generated in pooled plasma by DS500 (50 µg/ml), represent the mean values ± S.D. from three different experiments. • Figure 3. […] Binding was expressed as the percentage of the total counts that were found in the pellet in the absence of mAbs. […]

Another assay addresses mAb KOK5. Put plainly: cell-based or functional assay.
The mark [3] stands for this setting: read-out: FXIIa-C1inh (IC50 values).
Setting [4] is: read-out: FXIa-C1inh (IC50 values).
Where [5] appears, read: read-out: kal-C1inh (IC50 values).

For orientation: IC50 means the concentration that gives 50% inhibition. On to `C[C@@H](O)[C@H](NC(=O)[C@H](CS)NC(=O)[C@H](CCC(N)=O)NC(=O)[C@H](Cc1c[nH]cn1)NC(=O)[C@@H](N)CO)C(=O)N[C@@H](Cc1c[nH]cn1)C(=O)N[C@@H](CCCNC(=N)N)C(=O)N[C@@H](CCCCN)C(=O)N[C@@H](CS)C(=O)N[C@@H](Cc1ccc(O)cc1)C(=O)O` [SHQCTHRKCY] (H-SHQCTHRKCY-OH), for which the IC50 with contact system [1] (setting [3]) amounted to 7 ± 1.4 mM; in the assay with contact system [1] (setting [4]) it was 7.5 ± 0.5 mM; in the assay with contact system [1] (setting [5]) it was 6 ± 2.1 mM; in the assay on contact system [2] (setting [3]), 3.15 ± 0.85 mM; in the assay on contact system [2] (setting [4]) it was 6.75 ± 1.25 mM; in the assay with contact system [2] (setting [5]), 5.25 ± 2.7 mM. The IC50 at FXII (synthetic peptides, read-out: IC50, inhibition of binding of 125I-FXII to kaolin) was 0.9 mM. The “IC50 relative to that of FXII itself (times higher)” value at FXII (inhibition of binding of 125I-FXII to kaolin) is 10,000 times.

B1: synthetic peptide … (peptide)
peptide: AEGEFRFQTPQWE
For the molecule B1, the inhibition of FXII activation by kallikrein in the presence of mAb KOK5 (IC50) in the assay with mAb KOK5 turned out to be 0.05 mM.
